Data as given in patent US8293729B2 (Boehringer Ingelheim International GmbH, priority 2009, dated 2012).

biological target: T1, human GPR119 receptor (Homo sapiens, UniProt Q8TDV5, S329A/T327A); assay: cAMP assay (LANCE cAMP-384) in HEK293 cells stably expressing mutant human GPR119 receptor; format: cell-based; conditions: HEK293, 20 min; at 10 μM; printed in EC50 column of the 36th table; read-out: stimulation in % at 10 μM
T1 construct: N-terminal leader […]; expressed in transfected cells
T1 sequence (Q8TDV5 with tags, fused parts or gaps T327A/S329A): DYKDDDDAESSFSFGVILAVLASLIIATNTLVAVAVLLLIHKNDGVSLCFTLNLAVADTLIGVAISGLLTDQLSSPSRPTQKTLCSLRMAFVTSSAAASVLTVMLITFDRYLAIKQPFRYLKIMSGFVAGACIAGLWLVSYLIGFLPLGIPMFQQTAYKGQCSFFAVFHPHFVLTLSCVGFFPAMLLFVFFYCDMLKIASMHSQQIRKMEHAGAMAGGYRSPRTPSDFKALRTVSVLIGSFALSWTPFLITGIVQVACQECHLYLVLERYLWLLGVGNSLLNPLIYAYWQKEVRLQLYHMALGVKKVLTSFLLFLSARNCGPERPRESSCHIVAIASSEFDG
Procedure: Quantitative detection of cAMP accumulation from cells expressing human GPR119 receptor was achieved using Perkin Elmer's LANCE cAMP-384 Kit (Cat#AD0264) according to the manufacturer's protocol. Briefly, HEK293 cells stably expressing a mutant form of the human GPR119 receptor (Methionine 1 replaced with the amino acid sequence […] (SEQ ID NO: 1), and T327 & S329 changed to alanines) were grown to 50-70% confluency in cell culture media (DMEM, 10% heat inactivated Fetal Bovine Serum, 50 I.U./mL penicillin, 50 μg/mL streptomycin, 10 mM HEPES, 20 μg/mL G418 Sulfate). On the day of the assay, GPR119 stable HEK293 cells were lifted from the tissue culture plate and 1000 cells/well were incubated along with various concentrations of test compounds for 20 min at 37° C. Detection Buffer (50mM HEPES, 10mM calcium chloride, 0.35% Triton X-100, 1 mg/mL BSA) containing cAMP-specific antibody was then added to all wells and allowed to equilibrate in the dark for 10 minutes at room temperature. Upon equilibration, Detection Buffer containing europium-labeled cAMP tracer complex was added to all wells and allowed to react for 1 hour at room temperature. After 1 hour, bound europium-labeled cAMP tracer was measured using a Perkin Elmer ViewLux. The quantity of cAMP generated in each well was derived from a standard curve. EC50 was determined using nonlinear regression analysis of the cAMP values over a range of agonist concentration (12 points spanning the range from 30 μM to 100pM).
For some compounds for which no EC50 value could be determined, the efficacy is provided at a single concentration (10 μM) yielding % stimulation values.

Row | Structure (SMILES) | activation at 10 µM [%]
1 | CS(=O)(=O)c1ccc(N2CCC(=NOC3CCN(Cc4ccc5c(c4)CCO5)CC3)CC2)c(F)c1 [Example 66-35] | 61
2 | CN(C)c1ccc(CN2CCC(ON=C3CCN(c4ccc(S(C)(=O)=O)cc4F)CC3)CC2)cc1 [Example 66-36] | 83

same assay, conditions: HEK293, 20 min; single concentration 10 μM; given where no EC50 value could be determined; read-out: % stimulation at 10 μM

Row | Structure (SMILES) | activation at 10 µM [%]
3 | CC(C)OC(=O)N1CCC(ON=C2CCN(c3nccc(CO)c3F)CC2)CC1 [Example 2-64] | 79
4 | Cc1cccnc1N1CCC(=NOC2CCN(C(=O)OC(C)C)CC2)CC1 [Example 2-7] | 55

same assay, conditions: cAMP accumulation, HEK293 cells stably expressing mutant human GPR119; read-out: EC50

Row | Structure (SMILES) | EC50 [nM]
5 | CC(C)OC(=O)N1CCC(ON=C2CCN(c3nccc(N(C)C)n3)CC2)CC1 [Example 2-44] | > 10000
6 | CC(=O)Nc1cc(F)c(N2CCC(=NOC3CCN(C(=O)OC(C)C)CC3)CC2)cc1F [Example 35-1, 4-[1-(4-Acetylamino-2,5-difluoro-phenyl)-piperidin-4-ylideneaminooxy]-piperidine-1-carboxylic acid isopropyl ester] | 17
7 | Cc1ccn(Cc2cc(F)c(N3CCC(=NOC4CCN(C(=O)OC(C)C)CC4)CC3)cc2F)n1 [Example 14-9] | 257
8 | Cc1nnnn1Cc1cc(F)c(N2CCC(=NOC3CCN(C(=O)OC(C)C)CC3)CC2)cc1F [Example 14-15] | 39
9 | CC(C)OC(=O)N1CCC(ON=C2CCN(c3cc(F)c(-n4ccnc4)cc3F)CC2)CC1 [Example 22-1, 4-[1-(2,5-Difluoro-4-imidazol-1-yl-phenyl)-piperidin-4-ylideneaminooxy]-piperidine-1-carboxylic acid isopropyl ester] | 435
10 | CC(C)OC(=O)N1CCC(ON=C2CCN(c3ccc(C=O)c(F)c3)CC2)CC1 [Example 2-20] | 703
11 | CC(C)OC(=O)N1CCC(ON=C2CCN(c3cc(O)ncc3F)CC2)CC1 [Example 2-74] | > 10000
12 | CCNC(=O)NCc1cc(F)c(N2CCC(=NOC3CCN(C(=O)OC(C)C)CC3)CC2)cc1F [Example 16-1, 4-(1-{4-[(3-Ethyl-ureido)-methyl]-2,5-difluoro-phenyl}-piperidin-4-ylideneaminooxy)-piperidine-1-carboxylic acid isopropyl ester] | 168
13 | Cc1cc(C=O)ccc1N1CCC(=NOC2CCN(C(=O)OC(C)C)CC2)CC1 [Example 2-29] | 3170
14 | CC(C)OC(=O)N1CCC(ON=C2CCN(c3cc(F)c(-c4ncccn4)cc3F)CC2)CC1 [Example 27-20] | 272
15 | CC(C)OC(=O)N1CCC(ON=C2CCN(c3ccc(CO)cc3)CC2)CC1 [Example 2-53] | > 10000
16 | CC(C)OC(=O)N1CCC(ON=C2CCN(c3ncnc(F)c3F)CC2)CC1 [Example 2-58] | 603
17 | CC(C)OC(=O)N1CCC(ON=C2CCN(c3nc(Cl)ncc3F)CC2)CC1 [Example 2-73] | 110
18 | CC(C)OC(=O)N1CCC(ON=C2CCN(c3cc(F)c(-c4ccccn4)cc3F)CC2)CC1 [Example 27-27] | 159
19 | CC(C)OC(=O)N1CCC(ON=C2CCN(c3ccncc3)CC2)CC1 [Example 2-9] | > 10000
20 | CC(C)OC(=O)N1CCC(ON=C2CCN(c3nncs3)CC2)CC1 [Example 2-14] | > 10000
21 | CC(C)OC(=O)N1CCC(ON=C2CCN(c3cc(F)c(Cn4cnc5ccncc54)cc3F)CC2)CC1 [Example 14-8] | 763

same assay, conditions: the 15th table; read-out: EC50

Row | Structure (SMILES) | EC50 [nM]
22 | CNCCN(C)C(=O)c1cc(F)c(N2CCC(=NOC3CCN(C(=O)OC(C)C)CC3)CC2)cc1F [Example 29-5] | 215
23 | CC(C)OC(=O)N1CCC(ON=C2CCN(c3cc(F)c(C(=O)N4CCNCC4)cc3F)CC2)CC1 [Example 29-3] | 512
24 | CC(C)OC(=O)N1CCC(ON=C2CCN(c3cc(F)c(C(=O)NCCCN)cc3F)CC2)CC1 [Example 29-7] | 42

same assay, conditions: the 19th table; unit inferred; read-out: EC 50

Row | Structure (SMILES) | EC50 [nM]
25 | CCc1cnc(N2CCC(ON=C3CCN(c4cc(F)c(C(=O)NCC5CCNC5)cc4F)CC3)CC2)nc1 (stereo not shown) [Example 29-139] | 92
26 | CCc1cnc(N2CCC(ON=C3CCN(c4cc(F)c(C(=O)NCC5CCNCC5)cc4F)CC3)CC2)nc1 [Example 29-128] | 70
27 | CCc1cnc(N2CCC(ON=C3CCN(c4cc(F)c(C(=O)N5CC[C@H](N)C5)cc4F)CC3)CC2)nc1 [Example 29-119] | 75
28 | CCc1cnc(N2CCC(ON=C3CCN(c4cc(F)c(C(=O)N5CCC[C@H](N)C5)cc4F)CC3)CC2)nc1 [Example 29-89] | 74

same assay, conditions: the 27th table; read-out: EC50

Row | Structure (SMILES) | EC50 [nM]
29 | CC(C)OC(=O)N1CCC(ON=C2CCN(c3cc(F)c(CO)cc3F)CC2)CC1 [Example 48-1, 4-[1-(2,5-Difluoro-4-hydroxymethyl-phenyl)-piperidin-4-ylideneaminooxy]-piperidine-1-carboxylic acid isopropyl ester] | 9

same assay, conditions: the 28th table; read-out: EC50

Row | Structure (SMILES) | EC50 [nM]
30 | CC(C)OC(=O)N1CCC(ON=C2CCN(c3ncc(-n4cncn4)cn3)CC2)CC1 [Example 51-4] | 735
31 | CC(C)OC(=O)N1CCC(ON=C2CCN(c3ncc(N4CCCC4=O)cc3F)CC2)CC1 [Example 51-3] | 401

same assay, conditions: the 32nd table; read-out: EC50

Row | Structure (SMILES) | EC50 [nM]
32 | COC(=O)c1cnc(N2CCC(ON=C3CCN(c4ccc(S(C)(=O)=O)cc4F)CC3)CC2)nc1 [Example 63-21] | 260
33 | Cc1cccnc1N1CCC(ON=C2CCN(c3ccc(S(C)(=O)=O)cc3F)CC2)CC1 [Example 63-3] | > 10000
34 | CS(=O)(=O)c1ccc(N2CCC(=NOC3CCN(c4nccc(C(F)(F)F)n4)CC3)CC2)c(F)c1 [Example 63-11] | > 10000
35 | CS(=O)(=O)c1ccc(N2CCC(=NOC3CCN(c4ccncc4)CC3)CC2)c(F)c1 [Example 63-4] | > 10000
36 | CS(=O)(=O)c1ccc(N2CCC(=NOC3CCN(c4cc(C(F)(F)F)ccn4)CC3)CC2)c(F)c1 [Example 63-10] | > 10000

same assay, conditions: the 33rd table; read-out: EC50

Row | Structure (SMILES) | EC50 [nM]
37 | CC[C@H](C)COC(=O)N1CCC(ON=C2CCN(c3ccc(S(C)(=O)=O)cc3F)CC2)CC1 [Example 64-48] | 54
38 | CC#CCOC(=O)N1CCC(ON=C2CCN(c3ccc(S(C)(=O)=O)cc3F)CC2)CC1 [Example 64-4] | 152
39 | CS(=O)(=O)c1ccc(N2CCC(=NOC3CCN(C(=O)OCCN4CCCC4)CC3)CC2)c(F)c1 [Example 64-20] | > 10000

same assay, conditions: the 34th table, compounds 65-1 to 65-24; read-out: EC50

Row | Structure (SMILES) | EC50 [nM]
40 | CS(=O)(=O)c1ccc(N2CCC(=NOC3CCN(C(=O)OCc4ccccc4)CC3)CC2)c(F)c1 [Example 65-14] | 153

same assay, conditions: the 36th table, compounds 66-1 to 66-51; read-out: EC50

Row | Structure (SMILES) | EC50 [nM]
41 | Cn1ccnc1CN1CCC(ON=C2CCN(c3ccc(S(C)(=O)=O)cc3F)CC2)CC1 [Example 66-12] | > 10000
42 | CS(=O)(=O)c1ccc(N2CCC(=NOC3CCN(Cc4ccc(OC(F)(F)F)cc4)CC3)CC2)c(F)c1 [Example 66-42] | 503
43 | CS(=O)(=O)c1ccc(N2CCC(=NOC3CCN(Cc4ccccc4C#N)CC3)CC2)c(F)c1 [Example 66-19] | > 10000
44 | Cc1cccc(CN2CCC(ON=C3CCN(c4ccc(S(C)(=O)=O)cc4F)CC3)CC2)c1 [Example 66-25] | 605
45 | CC(C)(C)CN1CCC(ON=C2CCN(c3ccc(S(C)(=O)=O)cc3F)CC2)CC1 [Example 66-22] | 1360
46 | CS(=O)(=O)c1ccc(N2CCC(=NOC3CCN(Cc4cccc(C(F)(F)F)c4)CC3)CC2)c(F)c1 [Example 66-30] | 1740

same assay, conditions: the 38th table, compounds 66-65 to 66-72; read-out: EC50

Row | Structure (SMILES) | EC50 [nM]
47 | CNC(=O)c1cc(F)c(N2CCC(=NOC3CCN(Cc4ccc(C)cc4)CC3)CC2)cc1F [Example 66-70] | 193
48 | CCc1ccc(CN2CCC(ON=C3CCN(c4cc(F)c(C(=O)NC)cc4F)CC3)CC2)cc1 [Example 66-71] | 79

same assay, conditions: the 39th table, compounds 67-1 to 67-3; read-out: EC50

Row | Structure (SMILES) | EC50 [nM]
49 | Cc1ccc(N2CCC(ON=C3CCN(c4ccc(S(C)(=O)=O)cc4F)CC3)CC2)nc1 [Example 67-1, 1-(2-Fluoro-4-methanesulfonyl-phenyl)-piperidin-4-one O-(5′-methyl-3,4,5,6-tetrahydro-2H-[1,2′]bipyridinyl-4-yl)-oxime] | 386

same assay, conditions: the 43rd table, compounds 75-1 to 75-38; read-out: EC50

Row | Structure (SMILES) | EC50 [nM]
50 | CC(C)OC(=O)N1CCC(ON=C2CCN(c3cc(F)c(CC(=O)N4CC[C@@H](N)C4)cc3F)CC2)CC1 [Example 75-19] | 78
51 | CC(C)OC(=O)N1CCC(ON=C2CCN(c3cc(F)c(CC(=O)NC[C@@H]4CCCN4)cc3F)CC2)CC1 [Example 75-10] | 203

same assay, conditions: the 44th table, compounds 77-1 to 77-14; read-out: EC50

Row | Structure (SMILES) | EC50 [nM]
52 | CCc1cnc(N2CCC(ON=C3CCN(c4cc(F)c(CC(=O)N5CCNCC5)cc4F)CC3)CC2)nc1 [Example 77-13] | 39
